# Experimental data as given in patent publication US20210122730A1, “GLUCOCORTICOID RECEPTOR MODULATORS” (ORIC Pharmaceuticals, Inc., priority 2017, published 2021).
# Biological target: T1, GR (Homo sapiens, UniProt P04150)
# T1 construct: expressed in transfected cells; host or cells: CHO-K1
# T1 sequence (P04150 1-777): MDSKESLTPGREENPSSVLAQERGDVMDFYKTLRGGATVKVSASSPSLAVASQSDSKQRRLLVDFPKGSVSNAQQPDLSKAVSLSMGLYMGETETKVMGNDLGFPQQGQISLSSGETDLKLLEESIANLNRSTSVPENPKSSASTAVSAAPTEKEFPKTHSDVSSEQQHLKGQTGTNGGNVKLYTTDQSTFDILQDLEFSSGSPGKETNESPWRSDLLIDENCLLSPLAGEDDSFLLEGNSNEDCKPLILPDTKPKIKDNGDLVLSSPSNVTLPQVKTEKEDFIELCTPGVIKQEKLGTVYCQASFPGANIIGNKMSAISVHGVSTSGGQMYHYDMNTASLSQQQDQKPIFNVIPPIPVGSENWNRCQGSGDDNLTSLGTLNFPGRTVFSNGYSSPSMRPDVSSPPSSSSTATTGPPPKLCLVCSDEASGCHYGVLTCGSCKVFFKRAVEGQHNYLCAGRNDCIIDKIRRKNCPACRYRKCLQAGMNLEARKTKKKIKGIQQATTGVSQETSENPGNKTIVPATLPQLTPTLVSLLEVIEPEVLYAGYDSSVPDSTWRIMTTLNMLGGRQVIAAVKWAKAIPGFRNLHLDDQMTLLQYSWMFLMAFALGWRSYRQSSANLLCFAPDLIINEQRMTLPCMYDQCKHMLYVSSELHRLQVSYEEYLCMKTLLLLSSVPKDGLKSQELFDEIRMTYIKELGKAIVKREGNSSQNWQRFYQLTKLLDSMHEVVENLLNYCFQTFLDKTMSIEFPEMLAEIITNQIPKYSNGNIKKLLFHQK
# Assay: In Vitro GR Luciferase Reporter Assay (antagonist mode, CHO-K1-GR-MMTV-Luc reporter cells)
# Assay type: cell-based
# Settings: antagonist assay with 10 nM Dexamethasone, 18-24 hours
# Procedure, shortened: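 Antagonist mode: compounds (8 serial 1:5 dilutions) added to GR-MMTV-luciferase CHO-K1 reporter cells co-exposed to 10 nM dexamethasone final, in phenol red-free DMEM plus 10% CSS. After roughly 18-24 h at 37° C, OneGlo luminescence read and IC50 calculated.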
row,SMILES,IC50 [nM]
1,"CN([C@H]1CCC2=Cc3c(cnn3-c3ccc(F)cc3)C[C@]2(C(=O)c2cc(C(F)(F)F)ccn2)C1)S(=O)(=O)c1ccc(F)cc1 [Example 5, 4-Fluoro-N-((4aS,6S)-1-(4-fluorophenyl)-4a-(4-(trifluoromethyl)picolinoyl)-4,4a,5,6,7,8-hexahydro-1H-benzo[f]indazol-6-yl)-N-methylbenzenesulfonamide]",≤ 100
2,"Cn1cc(S(=O)(=O)N(C2CC2)[C@H]2CCC3=Cc4c(cnn4-c4ccc(F)cc4)C[C@]3(C(=O)c3cc(C(F)(F)F)ccn3)C2)cn1 [Example 88, N-cyclopropyl-N-((4aS,6S)-1-(4-fluorophenyl)-4a-(4-(trifluoromethyl)picolinoyl)-4,4a,5,6,7,8-hexahydro-1H-benzo[f]indazol-6-yl)-1-methyl-1H-pyrazole-4-sulfonamide]",≤ 100
3,"CN([C@H]1CCC2=Cc3c(cnn3-c3ccc(F)cc3)C[C@]2(C(=O)c2cc(C(F)(F)F)ccn2)C1)S(=O)(=O)c1ccn(C)n1 [Example 98, N-((4aS,6S)-1-(4-fluorophenyl)-4a-(4-(trifluoromethyl)picolinoyl)-4,4a,5,6,7,8-hexahydro-1H-benzo[f]indazol-6-yl)-N,1-dimethyl-1H-pyrazole-3-sulfonamide]",≤ 100
4,"Cn1cc(S(=O)(=O)N(CC2CC2)[C@H]2CCC3=Cc4c(cnn4-c4ccc(F)cc4)C[C@]3(C(=O)c3cc(C(F)(F)F)ccn3)C2)cn1 [Example 103, N-(cyclopropylmethyl)-N-((4aS,6S)-1-(4-fluorophenyl)-4a-(4-(trifluoromethyl)picolinoyl)-4,4a,5,6,7,8-hexahydro-1H-benzo[f]indazol-6-yl)-1-methyl-1H-pyrazole-4-sulfonamide]",≤ 100

# Same assay, conditions: antagonist mode, 10 nM Dexamethasone
row,SMILES,IC50 [nM]
1,"Cn1cc(S(=O)(=O)C[C@H]2CCC3=Cc4c(cnn4-c4ccc(F)cc4)C[C@]3(C(=O)c3cc(C(F)(F)F)ccn3)C2)cn1 (single isomer, unassigned) [Example 118]",≤ 100
2,"Cn1ccc(S(=O)(=O)N(CC(F)(F)F)[C@H]2CCC3=Cc4c(cnn4-c4ccc(F)cc4)C[C@]3(C(=O)c3cc(C(F)(F)F)ccn3)C2)n1 [Example 111, N-((4aS,6S)-1-(4-Fluorophenyl)-4a-(4-(trifluoromethyl)picolinoyl)-4,4a,5,6,7,8-hexahydro-1H-benzo[f]indazol-6-yl)-1-methyl-N-(2,2,2-trifluoroethyl)-1H-pyrazole-3-sulfonamide]",≤ 100
3,"Cn1ccc(S(=O)(=O)[C@H]2CCC3=Cc4c(cnn4-c4ccc(F)cc4)C[C@]3(C(=O)c3cc(C(F)(F)F)ccn3)C2)n1 [Example 113, ((4aS,6S)-1-(4-Fluorophenyl)-6-((1-methyl-1H-pyrazol-3-yl)sulfonyl)-1,4,5,6,7,8-hexahydro-4aH-benzo[f]indazol-4a-yl)(4-(trifluoromethyl)pyridin-2-yl)methanone]",≤ 100
4,"Cn1ccc(S(=O)(=O)N(C2CC2)[C@H]2CCC3=Cc4c(cnn4-c4ccc(F)cc4)C[C@]3(C(=O)c3cc(C(F)(F)F)ccn3)C2)n1 [Example 138, N-cyclopropyl-N-((4aS,6S)-1-(4-fluorophenyl)-4a-(4-(trifluoromethyl)picolinoyl)-4,4a,5,6,7,8-hexahydro-1H-benzo[f]indazol-6-yl)-1-methyl-1H-pyrazole-3-sulfonamide]",≤ 100
5,"O=C(c1ncc(C(F)(F)F)s1)[C@]12Cc3cnn(-c4ccc(F)cc4)c3C=C1CC[C@H](N(C1CC1)S(=O)(=O)c1ccc(F)cc1)C2 [Example 177, N-cyclopropyl-4-fluoro-N-((4aS,6S)-1-(4-fluorophenyl)-4a-(5-(trifluoromethyl)thiazole-2-carbonyl)-4,4a,5,6,7,8-hexahydro-1H-benzo[f]indazol-6-yl)benzenesulfonamide]",≤ 100
6,"Cn1ccc(S(=O)(=O)N(CC2CC2)[C@H]2CCC3=Cc4c(cnn4-c4ccc(F)cc4)C[C@]3(C(=O)c3ncc(C(F)(F)F)s3)C2)n1 [Example 179, N-(cyclopropylmethyl)-N-((4aS,6S)-1-(4-fluorophenyl)-4a-(5-(trifluoromethyl)thiazole-2-carbonyl)-4,4a,5,6,7,8-hexahydro-1H-benzo[f]indazol-6-yl)-1-methyl-1H-pyrazole-3-sulfonamide]",≤ 100
7,"CC(C)N([C@H]1CCC2=Cc3c(cnn3-c3ccc(F)cc3)C[C@]2(C(=O)c2cc(C(F)(F)F)ccn2)C1)S(=O)(=O)c1ccn(C)n1 [Example 186, N-((4aS,6S)-1-(4-fluorophenyl)-4a-(4-(trifluoromethyl)picolinoyl)-4,4a,5,6,7,8-hexahydro-1H-benzo[f]indazol-6-yl)-N-isopropyl-1-methyl-1H-pyrazole-3-sulfonamide]",≤ 100
8,"CC(C)N(C(=O)c1cnn(C)c1)[C@H]1CCC2=Cc3c(cnn3-c3ccc(F)cc3)C[C@]2(C(=O)c2ncc(C(F)(F)F)s2)C1 [Example 211, N-((4aS,6S)-1-(4-fluorophenyl)-4a-(5-(trifluoromethyl)thiazole-2-carbonyl)-4,4a,5,6,7,8-hexahydro-1H-benzo[f]indazol-6-yl)-N-isopropyl-1-methyl-1H-pyrazole-4-carboxamide]",≤ 100
9,"Cn1ccc(S(=O)(=O)N(C2CC(F)(F)C2)[C@H]2CCC3=Cc4c(cnn4-c4ccc(F)cc4)C[C@]3(C(=O)c3cc(C(F)(F)F)ccn3)C2)n1 [Example 227, N-(3,3-difluorocyclobutyl)-N-((4aS,6S)-1-(4-fluorophenyl)-4a-(4-(trifluoromethyl)picolinoyl)-4,4a,5,6,7,8-hexahydro-1H-benzo[f]indazol-6-yl)-1-methyl-1H-pyrazole-3-sulfonamide]",≤ 100
10,"O=C(c1cc(Cl)ccn1)[C@]12Cc3cnn(-c4ccc(F)cc4)c3C=C1CC[C@H](N(C1CC1)S(=O)(=O)c1ccc(F)cc1)C2 [Example 232, N-((4aS,6S)-4a-(4-chloropicolinoyl)-1-(4-fluorophenyl)-4,4a,5,6,7,8-hexahydro-1H-benzo[f]indazol-6-yl)-N-cyclopropyl-4-fluorobenzenesulfonamide]",≤ 100
11,"Cn1cc(S(=O)(=O)N(CC(C)(C)O)[C@H]2CCC3=Cc4c(cnn4-c4ccc(F)cc4)C[C@]3(C(=O)c3cc(F)ccn3)C2)cn1 [Example 248, N-((4aS,6S)-1-(4-fluorophenyl)-4a-(4-fluoropicolinoyl)-4,4a,5,6,7,8-hexahydro-1H-benzo[f]indazol-6-yl)-N-(2-hydroxy-2-methylpropyl)-1-methyl-1H-pyrazole-4-sulfonamide]",≤ 100
12,"Cn1ccc(S(=O)(=O)N(C2CC(F)(F)C2)[C@H]2CCC3=Cc4c(cnn4-c4ccc(F)cc4)C[C@]3(C(=O)c3ncc(C(F)(F)F)s3)C2)n1 [Example 270, N-(3,3-difluorocyclobutyl)-N-((4aS,6S)-1-(4-fluorophenyl)-4a-(5-(trifluoromethyl)thiazole-2-carbonyl)-4,4a,5,6,7,8-hexahydro-1H-benzo[f]indazol-6-yl)-1-methyl-1H-pyrazole-3-sulfonamide]",≤ 100
13,"Cn1ccc(S(=O)(=O)N([C@H]2CCC3=Cc4c(cnn4-c4ccc(F)cc4)C[C@]3(C(=O)c3ncc(C(F)(F)F)s3)C2)[C@H]2C[C@@](C)(O)C2)n1 [Example 277, N-((4aS,6S)-1-(4-fluorophenyl)-4a-(5-(trifluoromethyl)thiazole-2-carbonyl)-4,4a,5,6,7,8-hexahydro-1H-benzo[f]indazol-6-yl)-N-((1s,3R)-3-hydroxy-3-methylcyclobutyl)-1-methyl-1H-pyrazole-3-sulfonamide]",≤ 100
14,"Cn1cnc(S(=O)(=O)N(C2CC2)[C@H]2CCC3=Cc4c(cnn4-c4ccc(F)cc4)C[C@]3(C(=O)c3ncc(C(F)(F)F)s3)C2)n1 [Example 305, N-cyclopropyl-N-((4aS,6S)-1-(4-fluorophenyl)-4a-(5-(trifluoromethyl)thiazole-2-carbonyl)-4,4a,5,6,7,8-hexahydro-1H-benzo[f]indazol-6-yl)-1-methyl-1H-1,2,4-triazole-3-sulfonamide]",≤ 100
15,"Cn1cnc(S(=O)(=O)N(C2CC2)[C@H]2CCC3=Cc4c(cnn4-c4ccc(F)cc4)C[C@]3(C(=O)c3cc(C(F)(F)F)ccn3)C2)n1 [Example 306, N-cyclopropyl-N-((4aS,6S)-1-(4-fluorophenyl)-4a-(4-(trifluoromethyl)picolinoyl)-4,4a,5,6,7,8-hexahydro-1H-benzo[f]indazol-6-yl)-1-methyl-1H-1,2,4-triazole-3-sulfonamide]",≤ 100
